Results: US7084239B1, “Cancer peptides of NY-ESO-1/CAG-3” (The United States of America as represented by the …, priority 1997, dated 2006)

Tests used:
Type in all cases: cell-based, human
[1] = system: CTL clone 2; assay: T cell recognition (GM-CSF release) of peptide-pulsed EBV B cells by CTL clone 2; settings: peptide pulsed onto 1510EBV or 586EBV B cells
From the text: (§1) FIGS. 7A–7C. An alternative open reading frame of the NY-ESO-1 gene and antigenic peptides recognized by CTL. FIG. 7A. Identification of antigenic peptides from the ORF2. Thirty peptides were synthesized based on all potential ORFs and screened. Representative data are shown here. Seven peptides derived from ORF2 (see FIG. 3A) were pulsed on HLA-A31 positive 1510EBV B cells and tested for T cell recognition based on GM-CSF release ([…], SEQ ID NO: 123; […], SEQ ID NO: 124; […], SEQ ID NO: 125; […], SEQ ID NO: 46; […], SEQ ID NO: 47; […], SEQ ID NO: 126; and […], SEQ ID NO: 127). 1510 EBV alone was used as a negative control. FIG. 7B. 1510EBV B cells were labeled with chromium for 2 h. The ESORF2-10-18 peptide was then pulsed on the chromium-labeled […] (solid square) and HLA-A31-negative 1102EBV (open circle) at different concentrations. 1510EBV pulsed with ESO10-53, which was recognized by CTL clone 5, was used for the specificity control (solid triangle). After peptide incubation and three washes, cytolysis of target cells by CTL-clone 2 was determined in a 4-h chromium release assay at an E:T ratio of 20:1. FIG. 7C. Several tumor lines and fresh breast tumors were tested for recognition by CTL clone 2 to determine whether the ORF2 is translated in different tumors. 1510EBV B cells pulsed with […] (SEQ ID NO: 25) (ESO10-53), […] (SEQ ID NO: 47) (ORF2-10-18), or alone were included to evaluate the reactivity and specificity of CTL clone 2 and 5. Expression of HLA-A31 on the tumor cells is indicated.
(§2) DNA transfection and GM-CSF assay were done as previously described (Wang, R. F., P. F. Robbins, Y. Kawakami, X. Q. Kang, and S. A. Rosenberg, 1995, J. Exp. Med. 181:799–804). Briefly, […] of DNA carrying a different fragment and 50 ng of the HLA-A31 DNA were mixed with 2 μl of lipofectamine in 100 μl of serum-free DMEM for 15–45 min. The DNA/lipofectamine mixture was then added to the COS-7 (5×10^4) cells and incubated overnight. The following day, cells were washed twice with DMEM medium. TIL586, CTL clone 5 or CTL clone 10 were added at a concentration of 5×10^4 cells/well in AIM-V medium containing 120 IU/ml of IL-2. After 18–24 h incubation, 100 μl of supernatant was collected and GM-CSF was measured in a standard ELISA assay (R+D Systems, Minneapolis, Minn.). […]
CTL clone 5 and TIL1244 were used for the specificity controls. […] To test the hypothesis that CTL may recognize a peptide from a gene product translated from an alternative open reading frame of the same gene, synthetic peptides were made with HLA-A31 Binding motif on the basis of amino acid sequence predicted from the second open reading frames (ORF2) (FIG. 3A). […]

[2] = system: CTL clone 2; assay: Chromium release cytolysis of peptide-pulsed target cells by CTL clone 2; settings: 4-h chromium release, E:T ratio of 20:1 (FIG. 7B)
From the text: as §1, with “Expression of HLA-A31 on the tumor cells is indicated.” left out
Cytolytic assay was done as previously described (Kawakami, Y et al., 1994, Proc. Natl. Acad. Sci. USA 91:6458–62). […] The cells were washed again, counted, and then mixed with TIL586 or CTL clone 5 at the indicated ratio of effector: targets (E:T). Chromium release was measured after 4 h incubation. […] Percentage of specific lysis was determined from the equation (A−B)/(C−B)×100 where A is lysis of 586EBV B cells by TIL586 or clone 5 in the presence of a peptide, B is spontaneous release from 586EBV B cells in presence of the same peptide but in the absence of effector cells, and C is the maximum chromium release. […]

[3] = system: TIL1244; assay: T cell recognition of peptide-pulsed 586EBV B cells by TIL1244; settings: peptide pulsed onto 586EBV B cells (FIG. 6)
From the text: FIGS. 6A–6H. CTL clones 2 and 14 recognize the NY-ESO-1 gene, but not the ESO10-53 peptide derived from the NY-ESO-1 protein. CTL clones 2, 14 and 5 recognized NY-ESO-1 when cotransfected with HLA-A31 cDNA into COS-7 (FIG. 6A, C, E and G). TIL1244, which recognized TRP-2 But not NY-ESO-1, was used as a specificity control. FIGS. 6B, D, F and H. CTL clones 2, 5, 14, and TIL1244 recognized 586mel. […] TIL1244 recognized the TRP197-205 peptide derived from TRP-2, 586EBV B cells alone or pulsed with the ORF3P peptide from an alternative reading frame of TRP1 were negative controls. 397mel is an HLA-A31-negative, NY-ESO-1-positive tumor line.
as §2, with “TIL586, CTL clone 5 or CTL clone 10 were added at a concentration of 5×10^4 cells/well in AIM-V medium containing 120 IU/ml of IL-2.” left out

## LAAQERRVPR (listed as Homo sapiens) [ESORF2-10-18]
[1]
  Recognition by CTL clone 2, in words: recognized
[2]
  Lysis of peptide-pulsed HLA-A31-negative 1102EBV by CTL clone 2: failed to lyse
[2]; peptide titration
  Lysis of peptide-pulsed 1510EBV by CTL clone 2: capable of lysing

## TRP197-205: peptide derived from TRP-2, recognized by TIL1244; specificity control (LLGPGRPYR; UniProt P40126 197-205, looked up, fragment)
[3]
  Recognition by TIL1244, in words: recognized
